Experimental data reported in ChEMBL document CHEMBL1148949, “(2S,3R)-2-aminododecan-3-ol, a new antifungal agent from the ascidian Clavelina oblonga” (2004).
Values after ≈ are worked out from the molar mass of the structure shown.

Tests used:
Candida albicans = experiment: Antifungal activity against Candida albicans ATCC 10231; type: functional
Nakaseomyces glabratus = experiment: Antifungal activity against Candida glabrata; type: functional

NYSTATIN
MIC (Candida albicans): 1 mg/L

CCCCCCCCC[C@@H](O)[C@H](C)N
MIC (Candida albicans): 0.7 mg/L (≈ 3.48 µM) | MIC (Nakaseomyces glabratus): 30 mg/L (≈ 149 µM)

CC(=O)N1CCN(c2ccc(OCC3COC(Cn4ccnc4)(c4ccc(Cl)cc4Cl)O3)cc2)CC1 (centres undefined) [KETOCONAZOLE]
MIC (Candida albicans): 0.01 mg/L (≈ 0.0188 µM)
